According to publication PMC2063322, “Phase I trial and pharmacokinetics of the tubulin inhibitor 1069C85--a synthetic agent binding at the colchicine site designed to overcome multidrug resistance” (British Journal of Cancer, 1997):
Where “and” joins values, the source holds several entries; their conditions need not be identical. Equal values may be shown once. Read-outs that look alike come from different tables or passages of the source.

Columns and labels:
[1] = parameters: method as in data on file Glaxo/Wellcome, 1990; settings: monkey, p.o.; ref data on file Glaxo/Wellcome, 1990; cited from earlier work
[2] = dog, cited from earlier work
[3] = Phase I pharmacokinetics: plasma 1069C85 by HPLC after single oral dose; parameters: Cmax of the patient experiencing grade 3 neurotoxicity: unit not given beside the values
Experimental: (§1) British Joumal of Cancer (1997) 75(4), 608-613 ? […] A phase I study was performed using a single oral dose every 3 weeks, administered as a suspension reconstituted in 0.1% Tween 80 and 0.9% saline. The starting dose was 2.8 mg m-2, and dose doubling was permitted until the area under curve (AUC) was ?40% of that at the mouse LD10; thereafter, a modified Fibonacci scheme was used. […] Keywords: tubulin; multidrug resistance; neurotoxicity The tubulin-binding agent 1069C85 was developed from a struc- ture activity investigation of tubulin inhibitors binding at the colchicine site on tubulin. […] No studies were performed using human tumour xenografts. […] METHODS Formulation and drug administration A formulation was developed at the Cancer Research Campaign Formulation Unit. The drug was dispensed into vials as a dry powder and reconstituted as a fine suspension by administration of 0.9% saline containing 0.1% Tween 80 (polysorbate) with vigorous mixing. Immediately before oral administration, the drug suspension was mixed with orange juice both to disguise any possible unpleasant taste and to help ensure complete ingestion.

[4] = Stability of 1069C85 in orange juice; settings: suspension mixed with orange juice
Experimental: as §1

[5] = Tumour response assessment in phase I patients; assay type: in vivo, human; settings: 39 patients, 2.8-200 mg m-2
Experimental: as §1

rodents = system: rodents; parameters: method as in data on file, Cancer Research Campaign, 1993; settings: ref data on file, Cancer Research Campaign, 1993; cited from earlier work
mice = system: mice; parameters: method as in data on file, Cancer Research Campaign, 1993; settings: ref data on file, Cancer Research Campaign, 1993, cited from earlier work
mammalian tubulin = system: mammalian tubulin; parameters: method as in Hodgson et al 1992; Hodgson, 1994; settings: at concentrations cytotoxic to P388 cells, ref Hodgson et al 1992, 1994; cited from earlier work
dogs = system: dogs; parameters: method as in Data on file, Glaxo/Wellcome, 1990; settings: 20 mg m-2; ref Data on file, Glaxo/Wellcome, 1990; cited from earlier work
rats = system: rats; parameters: method as in data on file, Cancer Research Campaign, 1993; settings: 14.3 mg m-2 p.o. (one-tenth mouse LD10), daily x 5 for 4 weeks, rat; ref data on file, Cancer Research Campaign, 1993; cited from earlier work
murine tumours = settings: cited from earlier work
[6] = Protein binding in human plasma (Amicon membrane centrifugation); settings: 25 C
Experimental: as §1

[7] = system: murine tumour cell lines with acquired resistance to natural anti-cancer products; settings: acquired resistance to a variety of natural anti-cancer products, ref Hodgson et al, 1992, 1994; cited from earlier work
human tumour cell lines = settings: ref Raynaud et al, 1994; cited from earlier work
Aqueous solubility = assay type: physicochemical
[8] = parameters: method as in Raynaud et al, 1994; settings: mouse, estimated; ref Raynaud et al, 1994; cited from earlier work
[9] = cited from earlier work
[10] = Phase I toxicity graded by Common Toxicity Criteria
Experimental: as §1

[11] = micronized, 25 mg m-2, mean (SD), 5 patients
[12] = micronized, 35.8 mg m-2, 1 patient
[13] = micronized, 50 mg m-2, mean, 2 patients
[14] = micronized, 100 mg m-2, mean, 2 patients previously treated at 200 mg m-2 standard formulation
[15] = non-micronized, 2.8 mg m-2, mean (SD), 3 patients
[16] = non-micronized, 5.6 mg m-2, mean, 2 patients
[17] = non-micronized, 11.2 mg m-2, mean (SD), 4 patients
[18] = non-micronized, 22.4 mg m-2, mean (SD), 3 patients
[19] = non-micronized, 35.8 mg m-2, mean (SD), 4 patients
[20] = non-micronized, 50 mg m-2, mean, 2 patients
[21] = non-micronized, 100 mg m-2, mean (SD), 4 patients
[22] = non-micronized, 200 mg m-2, mean (SD), 4 patients
[23] = single patient (no. 39), 50 mg m-2 micronized
[24] = single patient, 100 mg m-2 micronized, ataxia, confusion, hallucinations, coma
[25] = single patient, 100 mg m-2 micronized, vivid dreams, disturbed sleep
[26] = single patient, 200 mg m-2 non-micronized, ataxia, confusion, disorientation
[27] = single patient, 200 mg m-2 non-micronized, visual disturbance, flashing lights
[28] = grade 3 patient, 200 mg m-2 non-micronized
[29] = grade 4 neurotoxicity patient, 100 mg m-2 micronized
[30] = patient no. 39, 50 mg m-2 micronized

COC(=O)Nc1cn2nc(OCc3cc(OC)c(OC)c(OC)c3)ccc2n1 [1069C85]
plasma elimination half-life following oral administration [1]: ~2 h
oral bioavailability ([2]; i.v. formulation dimethyl isosorbide, ref data on file, Glaxo/Wellcome 1990): 7%
plasma elimination half-life following oral administration ([2]; p.o., ref Data on file 1990): approximately 16 h
Cmax of the patient experiencing grade 3 neurotoxicity ([3]; 200 mg m-2, non-micronized): 159
AUC [3, 11]: 1061.8 (?269.1) gg 1-1 h-1
Cmax [3, 11]: 58.6 (?19.5) hg 1-'
Tmax [3, 11]: 9.8 (?3.2) h
t1/2 [3, 11]: 38.9 (?36.9) h
AUC [3, 12]: 1262.3 gg 1-1 h-1
Cmax [3, 12]: 70.7 hg 1-'
Tmax [3, 12]: 6.3 h
t1/2 [3, 12]: 16.3 h
AUC [3, 13]: 3786.9 gg 1-1 h-1
Cmax [3, 13]: 198.9 hg 1-'
Tmax [3, 13]: 10.6 h
t1/2 [3, 13]: 24 h
AUC [3, 14]: 15011.7 gg 1-1 h-1
Cmax [3, 14]: 292.3 hg 1-'
Tmax [3, 14]: 6.1 h
t1/2 [3, 14]: 24.7 h
time after dosing at which drug was still detectable in the cerebrospinal fluid ([3]; most severely affected patient, 100 mg m-2 micronized): 8 days and 7 days
terminal half-life (range between patients) ([3]; non-micronized formulation, one-compartment model): 7 to 107 h
Cmax [3, 15]: 7.3 (?3.4) hg 1-'
Tmax [3, 15]: 10 (?7.1) h
t1/2 [3, 15]: 29 (+22) h
AUC ([3]; non-micronized, 2.8 mg m-2 single oral dose, mean (SD), 3 patients, AUC to 24 h): 69.9 (?30.2) gg 1-1 h-1
AUC [3, 16]: 209.7 gg 1-1 h-1
Cmax [3, 16]: 13 hg 1-'
Tmax [3, 16]: 9.5 h
t1/2 [3, 16]: 39.5 h
AUC [3, 17]: 371.5 (?178.7) gg 1-1 h-1
Cmax [3, 17]: 21.7 (?11.3) hg 1-'
Tmax [3, 17]: 5.3 (?1.2) h
t1/2 [3, 17]: 23.2 (?6.9) h
AUC [3, 18]: 476.4 (?206.8) gg 1-1 h-1
Cmax [3, 18]: 25.9 (?11.4) hg 1-'
Tmax [3, 18]: 7.6 (?1.9) h
t1/2 [3, 18]: 35.7 (?15.1) h
AUC [3, 19]: 507.5 (?153.6) gg 1-1 h-1
Cmax [3, 19]: 33 (?13.9) hg 1-'
Tmax [3, 19]: 7.8 (?3.4) h
t1/2 [3, 19]: 22.9 (?19.5) h
AUC [3, 20]: 423.3 gg 1-1 h-1
Cmax [3, 20]: 22 hg 1-'
Tmax [3, 20]: 7.2 h
t1/2 [3, 20]: 73.5 h
AUC [3, 21]: 844.7 (?314.7) gg 1-1 h-1
Cmax [3, 21]: 48.5 (?25) hg 1-'
Tmax [3, 21]: 4.8 (?1.1) h
t1/2 [3, 21]: 23 (?4.3) h
AUC [3, 22]: 3011 (?1771.4) gg 1-1 h-1
Cmax [3, 22]: 99.8 (?36.9) hg 1-'
Tmax [3, 22]: 8.8 (?1.9) h
t1/2 [3, 22]: 18.2 (?3) h
terminal elimination half-life (range) ([3]; original formulation, single oral dose every 3 weeks, patients): 18 to 73.5 h
AUC [3, 23]: 16.4 ItM h
Cmax [3, 23]: 327 .g l-i
AUC [3, 24]: 23.4 ItM h
Cmax [3, 24]: 495 .g l-i
AUC [3, 25]: 53.9 ItM h
Cmax [3, 25]: 90 .g l-i
AUC [3, 26]: 15.2 ItM h
Cmax [3, 26]: 159 .g l-i
AUC [3, 27]: 5.1 ItM h
Cmax [3, 27]: 100 .g l-i
effect of orange juice on the stability [4]: no effect
objective responses [5]: no objective responses
dose limiting toxicities (rodents): myelosuppression and gastrointestinal damage
LD10, single dose intraperitoneally (mice; mice, i.p.): 39.6 mg m-2
LD10, single oral dose (mice; mice, p.o.): 142.2 mg m-2
repeat dose that proved to be fatal (mice; mouse, i.p., daily x 5 for 4 weeks): above 3.9 mg m-2
inhibition of tubulin polymerization (mammalian tubulin): potent inhibition
toxicity observed in dogs (dogs): fatal toxicity
animals in which repeat dosing proved fatal (rats): seven out of ten
activity of the 20 mg kg-1 oral dose (murine tumours; 20 mg kg-1, oral, mouse): active dose
anti-tumour activity in vivo (murine tumours; oral route, a variety of murine tumours): confirmed
Protein binding [6]: > 99%
activity against resistant murine tumour cell lines [7]: retained activity
activity in resistant human tumour cell lines (human tumour cell lines): confirmed these findings
aqueous solubility (Aqueous solubility): extremely poor
Protein binding [8]: 85-99%
increase of bioavailability with micronized drug ([9]; mice, preclinical, ref F I Raynaud, personal communication): two-threefold
oral bioavailability ([9]; mouse, i.v. vehicle DMSO/saline, ref Raynaud et al, 1994): 20%
plasma elimination half-life following oral administration ([9]; mouse, p.o., ref Raynaud et al, 1994): ~8 h
incidence of central neurotoxicity (mainly mild sedation) ([10]; 200 mg m-2, non-micronized): four of five
duration of neurotoxic symptoms [10, 28]: 7 days
onset of neurotoxic symptoms after dosing [10, 28]: 48 h
alopecia grade [10, 29]: 2
neutropenia grade [10, 29]: 3
onset of neurotoxicity ([10]; grade 4 patient, 100 mg m-2 micronized): approximately 48 h
severe central neurotoxicity, maximum grade ([10]; micronized formulation, doses of 50-100 mg m-2): ≤ 4
toxicities observed ([10]; micronized, 25 or 35.8 mg m-2): No significant toxicities
nausea and vomiting grade (only toxicities observed) ([10]; non-micronized, 2.8 to 22.4 mg m-2): 1-2
antiproliferative toxicities ([10]; original formulation, 2.8-200 mg m-2): no antiproliferative toxicities
day of death attributed to 1069C85 [10, 30]: 8 days
thrombocytopenia grade [10, 30]: 3
vomiting and diarrhoea grade [10, 30]: 2
neutropenia grade ([10]; patient no. 39, 50 mg m-2 micronized, onset day 6): 4
Cmax at which severe neurotoxicity was not observed ([10]; patients): < 100 ng ml'
peak plasma concentration above which CNS neurotoxicity was severe ([10]; patients): above 100 tg 1-'
Neurotoxicity (CTC grade) ([10]; single patient (no. 39), 50 mg m-2 micronized, agitation, confusion and visual hallucinations, days 2-6): 3
Neurotoxicity (CTC grade) ([10]; single patient, 100 mg m-2 micronized, ataxia, confusion, hallucinations, coma, days 2-7): 4
Neurotoxicity (CTC grade) ([10]; single patient, 100 mg m-2 micronized, vivid dreams, disturbed sleep, days 3-6): 1
Neurotoxicity (CTC grade) ([10]; single patient, 200 mg m-2 non-micronized, ataxia, confusion, disorientation, days 2-6): 3
Neurotoxicity (CTC grade) [10, 27]: 1
